Measured values published in PubChem BioAssay AID1963853 (Molecular Pharmacology Branch, DTP, NCI, 2024).

Tested on: 266295-075-R-J1-PDC spheroid viability
Test: Anticancer human tumor 266295-075-R-J1-PDC patient-derived head and neck squamous carcinoma cell line growth inhibition [POLQ]
Conditions: spheroids with HUVEC and MSC; for IC50: curve of first compound; for viability, T/C: stronger effect = lower value
Method: Multicellular complex tumor spheroid response to Polymerase (POL) inhibitors (novobiocin, ART-558, RP6685) in combination with a variety of drugs and investigational agents in selected tumor cell lines
The POL inhibitors (novobiocin, ART-558, and RP6685) were evaluated both individually and in combination with standard of care and investigational anticancer small molecules within a complex spheroid model of solid tumors. . Complex spheroids include a stromal component modeled by human endothelial cells (HUVEC) and fibroblasts modeled by human mesenchymal stem cells (MSCs). The concentration ranges selected for each drug and investigational agent were based upon clinically achievable concentrations if the clinical Cmax of the agent was known.
Compounds. The drugs and investigational agents: novobiocin (NSC847541), ART-558 (NSC835418), RP-6685 (NSC848927), peposertib (NSC802822), ceralasertib (NSC780249), elimusertib (NSC800525), camonsertib (NSC841442), AZD-1390 (NSC803789), olaparib (NSC753686), talazoparib (NSC767125), rucaparib (NSC756644), sotorasib (NSC818433), MRTX-1133 (NSC836407), SN-38 (NSC673596), topotecan (NSC609699), epotoside (NSC141540), doxorubicin (NSC123127), gemcitabine (NSC613327), 5-fluorouracil (NSC19893), paclitaxel (NSC125973), vemurafenib (NSC761431), MSA-2 (NSC828583), SN-011 (NSC837082), adavosertib (NSC754352), prexasertib (NSC758257), carboplatin (NSC241240) and oxaliplatin (NSC266046), were obtained from the National Cancer Institute (NCI) Developmental Therapeutics Program Chemical Repository (21). The FDA-approved anticancer drug set is available from the Developmental Therapeutics Program at https://dtp.cancer.gov/organization/dscb/obtaining/. […] The stock solutions were prepared in dimethyl sulfoxide (DMSO, Sigma-Aldrich, St. Louis, MO, cat. D2650), except for the platinum compounds which were prepared in saline (Quality Biological, Gaithersburg, MD, cat. 114-055-101), at 800-fold the tested concentration and stored at -70 degrees C prior to their use. All drugs and investigational agents were tested over a range starting from a high concentration at or near the clinical Cmax and decreasing in half-log increments. If the clinical Cmax for an agent had not been determined, the highest concentration tested was 10 microM, except for SN-38, which was tested at a high concentration of 1 microM.
Cell Culture. All cells were maintained in an incubator at 37 degrees C and 5% CO2 with 95% humidity. The PDC lines were cultured according to standard operating procedures established by the NCI PDMR (https://pdmr.cancer.gov). Table 3 of the manuscript, lists the cell lines along with the number of the three cell types plated to form the mct-spheroids and media for tumor cell growth. After thawing, all PDC lines, except 997537-175-T-J1-PDC and 415267-285-R-J2-PDC, were cultured in Matrigel-coated flasks prepared with a working solution of 1X Ham's F-12 nutrient mix, without supplementation (Thermo Fisher Scientific, cat. 11765054), 100 U/mL penicillin-streptomycin (Thermo Fisher Scientific, cat. 15140122), and 2.5% Matrigel (Corning Inc., Corning, NY, cat. 354248) for the first three passages. The two PDC lines 997537-175-T-J1-PDC and 415267-285-R-J2-PDC were cultured on uncoated flasks. The 857933-349-R-J2-PDC line was cultured in 6C/Colon 1B media containing advanced DMEM/F-12 (Thermo Fisher Scientific, cat. 12634028), 10 mM HEPES (Thermo Fisher Scientific, cat. 15630080), 1X GlutaMAX supplement (Thermo Fisher Scientific, cat. 35050061), 0.1 mg/mL primocin (InvivoGen, San Diego, CA, cat. ant-pm-2), 10% defined fetal bovine serum, heat inactivated (HyClone Laboratories Inc., Logan, UT, cat. SH30070.03HI), 50% L-WRN conditioned media (ATCC, cat. CRL-3276), 1.25 mM N-Acetyl-L-cysteine (Sigma-Aldrich, cat. A9165), 10 mM nicotinamide (Sigma-Aldrich, cat. N0636), 1X B-27 supplement (Thermo Fisher Scientific, cat. 17504044), 1X N-2 supplement (Thermo Fisher Scientific, cat. […]
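Further: spheroids exposed to compounds for seven days before readout.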

`CC(=O)O[C@H]1C(=O)[C@@]2(C)[C@H]([C@H](OC(=O)c3ccccc3)[C@]3(O)C[C@H](OC(=O)[C@H](O)[C@@H](NC(=O)c4ccccc4)c4ccccc4)C(C)=C1C3(C)C)[C@]1(OC(C)=O)CO[C@@H]1C[C@@H]2O` + Cc1cccc(N(C)C(=O)C2C(O)CCN2c2nc(C)cc(C(F)(F)F)c2C#N)c1 showed an IC50 (second compound 0.0316 µM) of over 3 µM, an IC50 (second compound 0.1 µM) of over 3 µM and an IC50 (second compound 0.316 µM) of over 3 µM. For the same compound, the IC50 (second compound 1 µM) was over 3 µM, the IC50 (second compound 3.16 µM) was over 3 µM and the IC50 (second compound 10 µM) was over 3 µM. For the same compound, the viability, T/C (second compound 0.0316 µM, first compound 0.00949 µM) was 71.9%, the viability, T/C (second compound 0.0316 µM, first compound 0.03 µM) was 58.7% and the viability, T/C (second compound 0.0316 µM, first compound 0.0949 µM) was 62.5%. The viability, T/C (second compound 0.0316 µM, first compound 0.3 µM) was 80.5%, the viability, T/C (second compound 0.0316 µM, first compound 0.949 µM) was 78.7% and the viability, T/C (second compound 0.0316 µM, first compound 3 µM) was 60%. It also gave a viability, T/C (second compound 0.1 µM, first compound 0.00949 µM) of 71.7%, a viability, T/C (second compound 0.1 µM, first compound 0.03 µM) of 71% and a viability, T/C (second compound 0.1 µM, first compound 0.0949 µM) of 56.9%. The viability, T/C (second compound 0.1 µM, first compound 0.3 µM) was 74.7%, the viability, T/C (second compound 0.1 µM, first compound 0.949 µM) was 83.8% and the viability, T/C (second compound 0.1 µM, first compound 3 µM) was 51.8%. For the same compound, the viability, T/C (second compound 0.316 µM, first compound 0.00949 µM) was 100%, the viability, T/C (second compound 0.316 µM, first compound 0.03 µM) was 65.9% and the viability, T/C (second compound 0.316 µM, first compound 0.0949 µM) was 64%. It also gave a viability, T/C (second compound 0.316 µM, first compound 0.3 µM) of 69.2%, a viability, T/C (second compound 0.316 µM, first compound 0.949 µM) of 71% and a viability, T/C (second compound 0.316 µM, first compound 3 µM) of 55.4%. The viability, T/C (second compound 1 µM, first compound 0.00949 µM) was 70.8%, the viability, T/C (second compound 1 µM, first compound 0.03 µM) was 56.4% and the viability, T/C (second compound 1 µM, first compound 0.0949 µM) was 79.4%. It also gave a viability, T/C (second compound 1 µM, first compound 0.3 µM) of 68%, a viability, T/C (second compound 1 µM, first compound 0.949 µM) of 78.2% and a viability, T/C (second compound 1 µM, first compound 3 µM) of 62.7%. The viability, T/C (second compound 3.16 µM, first compound 0.00949 µM) was 93%, the viability, T/C (second compound 3.16 µM, first compound 0.03 µM) was 60.2% and the viability, T/C (second compound 3.16 µM, first compound 0.0949 µM) was 73.1%. The viability, T/C (second compound 3.16 µM, first compound 0.3 µM) was 69.1%, the viability, T/C (second compound 3.16 µM, first compound 0.949 µM) was 81.5% and the viability, T/C (second compound 3.16 µM, first compound 3 µM) was 61.9%. For the same compound, the viability, T/C (second compound 10 µM, first compound 0.00949 µM) was 83.8%, the viability, T/C (second compound 10 µM, first compound 0.03 µM) was 52.4% and the viability, T/C (second compound 10 µM, first compound 0.0949 µM) was 60.9%. It also gave a viability, T/C (second compound 10 µM, first compound 0.3 µM) of 68.1%, a viability, T/C (second compound 10 µM, first compound 0.949 µM) of 72.4% and a viability, T/C (second compound 10 µM, first compound 3 µM) of 62.8%.
